The results in this text go back to PubChem BioAssay AID270 (DTP/NCI, 2004).

Each structure is given as a SMILES string. Records with an inconclusive call do not appear.

The test system of this experiment is BDF1 mice, s.c. Lewis lung carcinoma, T/C %. In words: NCI In Vivo Anticancer Drug Screen. Data for tumor model Lewis Lung Carcinoma (subcutaneous) in B6D2F1 (BDF1) mice. An outline of the steps:
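The value reflects a ratio in which the treated cohort's survival time or tumour size is compared against mice receiving only vehicle.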

The mark [1] stands for this setting: endpoint: median survival time, dose: 25.0 mg/kg/injection, schedule: Q01DX009 (ip), vehicle: Klucel (hydroxypropylcellulose) (HPC), higher = longer survival.
Where [2] appears, read: endpoint: median survival time, dose: 50.0 mg/kg/injection, schedule: Q01DX009 (ip), vehicle: Klucel (hydroxypropylcellulose) (HPC), higher = longer survival.
Where [3] appears, read: endpoint: median survival time, dose: 100.0 mg/kg/injection, schedule: Q01DX009 (ip), vehicle: Klucel (hydroxypropylcellulose) (HPC), higher = longer survival.
The mark [4] stands for this setting: endpoint: median survival time, dose: 200.0 mg/kg/injection, schedule: Q01DX009 (ip), vehicle: Klucel (hydroxypropylcellulose) (HPC), higher = longer survival.

`O=C(NP(=O)(N1CC1)N1CC1)c1cc(I)ccc1I`: the T/C is, setting by setting: (endpoint: median survival time, dose: 1.0 mg/kg/injection, schedule: Q02DX009 (ip), vehicle: saline with Tween-80, higher = longer survival) 110 % of control; (endpoint: median survival time, dose: 2.0 mg/kg/injection, schedule: Q02DX009 (ip), vehicle: saline with Tween-80, higher = longer survival) 112 % of control; (endpoint: median survival time, dose: 4.0 mg/kg/injection, schedule: Q02DX009 (ip), vehicle: saline with Tween-80, higher = longer survival) 117 % of control; (endpoint: median survival time, dose: 8.0 mg/kg/injection, schedule: Q02DX009 (ip), vehicle: saline with Tween-80, higher = longer survival) 117 % of control; (endpoint: median survival time, dose: 16.0 mg/kg/injection, schedule: Q02DX009 (ip), vehicle: saline with Tween-80, higher = longer survival) 106 % of control; (endpoint: median survival time, dose: 32.0 mg/kg/injection, schedule: Q02DX009 (ip), vehicle: saline with Tween-80, higher = longer survival) 102 % of control. For the setting “endpoint: median survival time, dose: 64.0 mg/kg/injection, schedule: Q02DX009 (ip), vehicle: saline with Tween-80, higher = longer survival”, the T/C is 98 % of control.

With `Cc1ccc(N2CCN(CCCN3CCN(c4ccccc4Cl)CC3)CC2)cc1`, the T/C (endpoint: mean tumor weight, dose: 22.5 mg/kg/injection, schedule: Q01DX011 (ip), vehicle: carboxymethylcellulose (CMC), higher = larger tumour) is 108 % of control; the T/C (endpoint: mean tumor weight, dose: 45.0 mg/kg/injection, schedule: Q01DX011 (ip), vehicle: carboxymethylcellulose (CMC), higher = larger tumour) was 45 % of control; the T/C (endpoint: mean tumor weight, dose: 90.0 mg/kg/injection, schedule: Q01DX011 (ip), vehicle: carboxymethylcellulose (CMC), higher = larger tumour) was 38 % of control.

Turning to `CNC(=O)Nc1ccccc1C(=O)NN`, the T/C is 113 % of control under setting [1], 96 % of control under setting [2], 102 % of control under setting [3] and 93 % of control under setting [4].

With `N#CCCN(Cc1ccccc1)C(N)=O`, the T/C (endpoint: mean tumor weight, dose: 0.5 mg/kg/injection, schedule: Q01DX011 (ip), vehicle: other, higher = larger tumour) was 73 % of control; the T/C (endpoint: mean tumor weight, dose: 1.0 mg/kg/injection, schedule: Q01DX011 (ip), vehicle: other, higher = larger tumour) was 68 % of control; the T/C (endpoint: mean tumor weight, dose: 2.0 mg/kg/injection, schedule: Q01DX011 (ip), vehicle: other, higher = larger tumour) is 48 % of control; the T/C (endpoint: mean tumor weight, dose: 4.0 mg/kg/injection, schedule: Q01DX011 (ip), vehicle: other, higher = larger tumour) was 55 % of control.

Consider `O=S1(=O)CCCO1`, for which the T/C (endpoint: mean tumor weight, dose: 10.0 mg/kg/injection, schedule: Q01DX011 (ip), vehicle: saline, higher = larger tumour) is 109 % of control; the T/C (endpoint: mean tumor weight, dose: 20.0 mg/kg/injection, schedule: Q01DX011 (ip), vehicle: saline, higher = larger tumour) is 102 % of control; the T/C (endpoint: mean tumor weight, dose: 40.0 mg/kg/injection, schedule: Q01DX011 (ip), vehicle: saline, higher = larger tumour) was 78 % of control.

In the case of `CC(=O)[C@H]1CC[C@H]2[C@@H]3C[C@H](C)C4=CC(=O)CC[C@]4(C)[C@H]3C(=O)C[C@]12C`, the T/C runs as follows: (endpoint: mean tumor weight (est.), dose: 100.0 mg/kg/injection, schedule: Q01DX009 (ip), vehicle: saline, higher = larger tumour) 65 % of control; (endpoint: mean tumor weight (est.), dose: 200.0 mg/kg/injection, schedule: Q01DX009 (ip), vehicle: saline, higher = larger tumour) 35 % of control; (endpoint: mean tumor weight (est.), dose: 400.0 mg/kg/injection, schedule: Q01DX009 (ip), vehicle: saline, higher = larger tumour) 37 % of control; (endpoint: mean tumor weight (est.), dose: 800.0 mg/kg/injection, schedule: Q01DX009 (ip), vehicle: saline, higher = larger tumour) 60 % of control; (endpoint: median survival time, dose: 100.0 mg/kg/injection, schedule: Q01DX009 (ip), vehicle: saline, higher = longer survival) 103 % of control; (endpoint: median survival time, dose: 200.0 mg/kg/injection, schedule: Q01DX009 (ip), vehicle: saline, higher = longer survival) 110 % of control. Moreover, the T/C (endpoint: median survival time, dose: 400.0 mg/kg/injection, schedule: Q01DX009 (ip), vehicle: saline, higher = longer survival) was 113 % of control and the T/C (endpoint: median survival time, dose: 800.0 mg/kg/injection, schedule: Q01DX009 (ip), vehicle: saline, higher = longer survival) is 100 % of control.

For `CN1CC(=O)N=C1N`, the T/C (endpoint: mean tumor weight, dose: 31.3 mg/kg/injection, schedule: Q01DX011 (ip), vehicle: saline, higher = larger tumour) was 116 % of control; the T/C (endpoint: mean tumor weight, dose: 62.5 mg/kg/injection, schedule: Q01DX011 (ip), vehicle: saline, higher = larger tumour) is 150 % of control; the T/C (endpoint: mean tumor weight, dose: 125.0 mg/kg/injection, schedule: Q01DX011 (ip), vehicle: saline, higher = larger tumour) was 119 % of control; the T/C (endpoint: mean tumor weight, dose: 250.0 mg/kg/injection, schedule: Q01DX011 (ip), vehicle: saline, higher = larger tumour) is 105 % of control.

Consider `CCC(CCC(C)C1CCC2C3CC=C4CC(OC(=O)CCC(=O)O)CCC4(C)C3CCC12C)C(C)C` (centres undefined), for which the T/C was 63 % of control (endpoint: mean tumor weight, dose: 200.0 mg/kg/injection, schedule: Q01DX011 (ip), vehicle: water, higher = larger tumour); 38 % of control (endpoint: mean tumor weight, dose: 400.0 mg/kg/injection, schedule: Q01DX011 (ip), vehicle: water, higher = larger tumour); 59 % of control (endpoint: mean tumor weight, dose: 450.0 mg/kg/injection, schedule: Q01DX011 (ip), vehicle: water, higher = larger tumour); 31 % of control (endpoint: mean tumor weight, dose: 600.0 mg/kg/injection, schedule: Q01DX011 (ip), vehicle: water, higher = larger tumour).

For `CNC1C(OC2C(OC3C(O)C(O)C(N=C(N)N)C(O)C3N=C(N)N)OC(C)C2(O)C=O)OC(CO)C(O)C1O` (centres undefined), the T/C (endpoint: median survival time, dose: 50.0 mg/kg/injection, schedule: Q01DX009 (ip), vehicle: water, higher = longer survival) is 95 % of control; the T/C (endpoint: median survival time, dose: 100.0 mg/kg/injection, schedule: Q01DX009 (ip), vehicle: water, higher = longer survival) was 102 % of control; the T/C (endpoint: median survival time, dose: 200.0 mg/kg/injection, schedule: Q01DX009 (ip), vehicle: water, higher = longer survival) was 105 % of control.

With `C[C@]12CC[C@H](OC3OC(CO)C(O)C(O)C3O)C[C@H]1CC[C@@H]1[C@@H]2CC[C@]2(C)[C@@H](C3=CCOC3=O)CC[C@]12O` (some centres undefined), the T/C is, setting by setting: (endpoint: mean tumor weight, dose: 0.25 mg/kg/injection, schedule: Q01DX011 (ip), vehicle: carboxymethylcellulose (CMC), higher = larger tumour) 33 % of control; (endpoint: mean tumor weight, dose: 0.25 mg/kg/injection, schedule: Q01DX011 (ip), vehicle: saline, higher = larger tumour) 41 % of control; (endpoint: mean tumor weight, dose: 0.5 mg/kg/injection, schedule: Q01DX011 (ip), vehicle: carboxymethylcellulose (CMC), higher = larger tumour) 47 % of control; (endpoint: mean tumor weight, dose: 0.5 mg/kg/injection, schedule: Q01DX011 (ip), vehicle: saline, higher = larger tumour) 16 % of control; (endpoint: mean tumor weight, dose: 1.0 mg/kg/injection, schedule: Q01DX011 (ip), vehicle: carboxymethylcellulose (CMC), higher = larger tumour) 14 % of control.

As for `Cc1c2ccncc2c(C)c2c1[nH]c1ccccc12`, the T/C (endpoint: median survival time, dose: 37.5 mg/kg/injection, schedule: Q04DX003 (ip), vehicle: saline with Tween-80, higher = longer survival) was 120 % of control and the T/C (endpoint: median survival time, dose: 75.0 mg/kg/injection, schedule: Q04DX003 (ip), vehicle: saline with Tween-80, higher = longer survival) is 87 % of control.

On to `O=NN(CCCl)C(=O)NC(CCC(=O)O)C(=O)O` (centres undefined), for which the T/C by setting is: (endpoint: median survival time, dose: 81.0 mg/kg/injection, schedule: Q01DX001 (ip), vehicle: saline with Tween-80, higher = longer survival) 99 % of control; (endpoint: median survival time, dose: 122.0 mg/kg/injection, schedule: Q01DX001 (ip), vehicle: saline with Tween-80, higher = longer survival) 95 % of control; (endpoint: median survival time, dose: 183.0 mg/kg/injection, schedule: Q01DX001 (ip), vehicle: saline with Tween-80, higher = longer survival) 157 % of control; (endpoint: median survival time, dose: 184.0 mg/kg/injection, schedule: Q01DX001 (ip), vehicle: saline with Tween-80, higher = longer survival) 117 % of control; (endpoint: median survival time, dose: 275.0 mg/kg/injection, schedule: Q01DX001 (ip), vehicle: saline with Tween-80, higher = longer survival) 107 % of control.

In the case of `C=C1C(=O)O[C@@H]2[C@H](O)[C@@H](C)[C@@H]3C=CC(=O)[C@@]3(C)[C@H](OC(=O)C=C(C)C)[C@H]12`, the T/C (endpoint: median survival time, dose: 0.63 mg/kg/injection, schedule: Q01DX009 (ip), vehicle: saline with Tween-80, higher = longer survival) is 95 % of control; the T/C (endpoint: median survival time, dose: 1.25 mg/kg/injection, schedule: Q01DX009 (ip), vehicle: saline with Tween-80, higher = longer survival) is 92 % of control; the T/C (endpoint: median survival time, dose: 2.5 mg/kg/injection, schedule: Q01DX009 (ip), vehicle: saline with Tween-80, higher = longer survival) is 99 % of control; the T/C (endpoint: median survival time, dose: 5.0 mg/kg/injection, schedule: Q01DX009 (ip), vehicle: saline with Tween-80, higher = longer survival) is 95 % of control; the T/C (endpoint: median survival time, dose: 10.0 mg/kg/injection, schedule: Q01DX009 (ip), vehicle: Klucel (hydroxypropylcellulose) (HPC), higher = longer survival) is 118 % of control; the T/C (endpoint: median survival time, dose: 10.0 mg/kg/injection, schedule: Q01DX009 (ip), vehicle: saline with Tween-80, higher = longer survival) was 92 % of control.

With `O=C1CC(c2ccc(O)cc2)CC(=O)C1C(C1CC=CCC1)N(CCCl)CCCl` (centres undefined), the T/C by setting is: under setting [1], 122 % of control; under setting [2], 123 % of control; under setting [3], 115 % of control; under setting [4], 111 % of control; (endpoint: median survival time, dose: 400.0 mg/kg/injection, schedule: Q01DX009 (ip), vehicle: Klucel (hydroxypropylcellulose) (HPC), higher = longer survival) 98 % of control.

Regarding `CCCCCCCCCCCCCCCCCCOC(=O)CCSCCC(=O)OCCCCCCCCCCCCCCCCCC`, the T/C was 117 % of control (endpoint: mean tumor weight, dose: 133.0 mg/kg/injection, schedule: Q01DX011 (ip), vehicle: carboxymethylcellulose (CMC), higher = larger tumour); 88 % of control (endpoint: mean tumor weight, dose: 200.0 mg/kg/injection, schedule: Q01DX011 (ip), vehicle: carboxymethylcellulose (CMC), higher = larger tumour); 101 % of control (endpoint: mean tumor weight, dose: 300.0 mg/kg/injection, schedule: Q01DX011 (ip), vehicle: carboxymethylcellulose (CMC), higher = larger tumour); 86 % of control (endpoint: mean tumor weight, dose: 450.0 mg/kg/injection, schedule: Q01DX011 (ip), vehicle: carboxymethylcellulose (CMC), higher = larger tumour); 165 % of control (endpoint: mean tumor weight, dose: 500.0 mg/kg/injection, schedule: Q01DX011 (ip), vehicle: other, higher = larger tumour); 121 % of control (endpoint: mean tumor weight, dose: 750.0 mg/kg/injection, schedule: Q01DX011 (ip), vehicle: other, higher = larger tumour).
